Assays:
BRD4 short = biological target: T1, BRD4 short (Homo sapiens, UniProt O60885); test: BRD4 (short) degradation assay, Western blotting; type: cell-based
T1 construct: endogenous in cells; host or cells: HEK293T
Procedure, shortened: (§1)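 Cell lines were grown at 37° C with 5% CO2 (HEK293T and C33A in DMEM, A549 in F-12K, 22RV1, LNCaP and Mino in RPMI-1640, K562 and MV-4-11 in IMDM, all with 10% FBS). Lysates were BCA-normalized, then SDS/PAGE Western blots were probed with target-specific antibodies and read by IR680/IR800 fluorescent secondaries on Li-Cor.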

BRD4 long = biological target: T2, BRD4 long (Homo sapiens, UniProt O60885); test: BRD4 (long) degradation assay, Western blotting; type: cell-based
T2 construct: endogenous in cells; host or cells: HEK293T
Procedure, shortened: as §1

[1] = second value of cell, range with lower bound in nM and upper bound in μM
[2] = first value of cell, range with lower bound in nM and upper bound in μM
[3] = second value of cell (long/short)
[4] = first value of cell (long/short)

DC50 (BRD4 short; [1]) [nM]	DC50 (BRD4 long; [2]) [nM]	DC50 (BRD4 short; [3]) [nM]	DC50 (BRD4 long; [4]) [nM]	SMILES
100 to 1000	100 to 1000	–	–	Cc1sc2c(c1C)C(c1ccc(Cl)cc1)=N[C@@H](CC(=O)N[C@H]1C[C@@H](NC(=O)/C=C/C(=O)c3ccc(=O)n(C)c3)C1)c1nnc(C)n1-2 [Compound 243, (E)-N-((1R,3s)-3-(2-((S)-4-(4-chlorophenyl)-2,3,9-trimethyl-6H-thieno[3,2-f][1,2,4]triazolo[4,3-a][1,4]diazepin-6-yl)acetamido)cyclobutyl)-4-(1-methyl-6-oxo-1,6-dihydropyridin-3-yl)-4-oxobut-2-enamide]
–	100 to 1000	1000	–	Cc1sc2c(c1C)C(c1ccc(Cl)cc1)=N[C@@H](CC(=O)N[C@H]1C[C@H](NC(=O)/C=C/C(=O)c3ccc(=O)n(C)c3)C1)c1nnc(C)n1-2 [Compound 244, (E)-N-((1S,3r)-3-(2-((S)-4-(4-chlorophenyl)-2,3,9-trimethyl-6H-thieno[3,2-f][1,2,4]triazolo[4,3-a][1,4]diazepin-6-yl)acetamido)cyclobutyl)-4-(1-methyl-6-oxo-1,6-dihydropyridin-3-yl)-4-oxobut-2-enamide]
–	–	> 5000	> 5000	Cc1sc2c(c1C)C(c1ccc(Cl)cc1)=N[C@@H](CC(=O)N1CCN(C(=O)/C=C/C(=O)N3CCN(C)CC3)CC1)c1nnc(C)n1-2 [Compound 245, (S,E)-1-(4-(2-(4-(4-chlorophenyl)-2,3,9-trimethyl-6H-thieno[3,2-f][1,2,4]triazolo[4,3-a][1,4]diazepin-6-yl)acetyl)piperazin-1-yl)-4-(4-methylpiperazin-1-yl)but-2-ene-1,4-dione]
100 to 1000	–	–	> 5000	COc1ccc(NC(=O)/C=C/C(=O)N2CCN(C(=O)C[C@@H]3N=C(c4ccc(Cl)cc4)c4c(sc(C)c4C)-n4c(C)nnc43)CC2)cc1 [Compound 246, (S,E)-4-(4-(2-(4-(4-chlorophenyl)-2,3,9-trimethyl-6H-thieno[3,2-f][1,2,4]triazolo[4,3-a][1,4]diazepin-6-yl)acetyl)piperazin-1-yl)-N-(4-methoxyphenyl)-4-oxobut-2-enamide]
100 to 1000	100 to 1000	–	–	Cc1sc2c(c1C)C(c1ccc(Cl)cc1)=N[C@@H](CC(=O)N1CCN(C(=O)/C=C/C(=O)Nc3cccn(C)c3=O)CC1)c1nnc(C)n1-2 [Compound 247, (S,E)-4-(4-(2-(4-(4-chlorophenyl)-2,3,9-trimethyl-6H-thieno[3,2-f][1,2,4]triazolo[4,3-a][1,4]diazepin-6-yl)acetyl)piperazin-1-yl)-N-(1-methyl-2-oxo-1,2-dihydropyridin-3-yl)-4-oxobut-2-enamide]
–	–	> 5000	> 5000	Cc1sc2c(c1C)C(c1ccc(Cl)cc1)=N[C@@H](CC(=O)N1CCN(C(=O)/C=C/C(=O)N3CCOCC3)CC1)c1nnc(C)n1-2 [Compound 248, (S,E)-1-(4-(2-(4-(4-chlorophenyl)-2,3,9-trimethyl-6H-thieno[3,2-f][1,2,4]triazolo[4,3-a][1,4]diazepin-6-yl)acetyl)piperazin-1-yl)-4-morpholinobut-2-ene-1,4-dione]
–	–	> 5000	> 5000	Cc1sc2c(c1C)C(c1ccc(Cl)cc1)=N[C@@H](CC(=O)N[C@H]1C[C@@H](NC(=O)/C=C/C(=O)N3CCOCC3)C1)c1nnc(C)n1-2 [Compound 249, (E)-N-((1R,3s)-3-(2-((S)-4-(4-chlorophenyl)-2,3,9-trimethyl-6H-thieno[3,2-f][1,2,4]triazolo[4,3-a][1,4]diazepin-6-yl)acetamido)cyclobutyl)-4-morpholino-4-oxobut-2-enamide]
–	–	> 5000	> 5000	Cc1sc2c(c1C)C(c1ccc(Cl)cc1)=N[C@@H](CC(=O)N[C@H]1C[C@H](NC(=O)/C=C/C(=O)N3CCOCC3)C1)c1nnc(C)n1-2 [Compound 250, (E)-N-((1S,3r)-3-(2-((S)-4-(4-chlorophenyl)-2,3,9-trimethyl-6H-thieno[3,2-f][1,2,4]triazolo[4,3-a][1,4]diazepin-6-yl)acetamido)cyclobutyl)-4-morpholino-4-oxobut-2-enamide]
–	–	10 to 100	> 5000	COc1ccc2c(c1)CCCN2C(=O)/C=C/C(=O)N1CCN(C(=O)C[C@@H]2N=C(c3ccc(Cl)cc3)c3c(sc(C)c3C)-n3c(C)nnc32)CC1 [Compound 251, (S,E)-1-(4-(2-(4-(4-chlorophenyl)-2,3,9-trimethyl-6H-thieno[3,2-f][1,2,4]triazolo[4,3-a][1,4]diazepin-6-yl)acetyl)piperazin-1-yl)-4-(6-methoxy-3,4-dihydroquinolin-1(2H)-yl)but-2-ene-1,4-dione]
–	–	> 5000	> 5000	COc1ccc2c(c1)CCN(C(=O)/C=C/C(=O)N1CCN(C(=O)C[C@@H]3N=C(c4ccc(Cl)cc4)c4c(sc(C)c4C)-n4c(C)nnc43)CC1)C2 [Compound 252, (S,E)-1-(4-(2-(4-(4-chlorophenyl)-2,3,9-trimethyl-6H-thieno[3,2-f][1,2,4]triazolo[4,3-a][1,4]diazepin-6-yl)acetyl)piperazin-1-yl)-4-(6-methoxy-3,4-dihydroisoquinolin-2(1H)-y1)but-2-ene-1,4-dione]
–	–	> 5000	> 5000	Cc1sc2c(c1C)C(c1ccc(Cl)cc1)=N[C@@H](CC(=O)NC1CC(NC(=O)/C=C/C(=O)N3CC4(COC4)C3)C1)c1nnc(C)n1-2 (stereo partly drawn) [Compound 253, (S,E)-N-(3-(2-(4-(4-chlorophenyl)-2,3,9-trimethyl-6H-thieno[3,2-f][1,2,4]triazolo[4,3-a][1,4]diazepin-6-yl)acetamido)cyclobutyl)-4-oxo-4-(2-oxa-6-azaspiro[3.3]heptan-6-yl)but-2-enamide]
–	–	10 to 100	10 to 100	Cc1sc2c(c1C)C(c1ccc(Cl)cc1)=N[C@@H](CC(=O)N[C@H]1C[C@@H](NC(=O)/C=C/C(=O)C(C)(C)C)C1)c1nnc(C)n1-2 [Compound 277, (E)-N-((1R,3s)-3-(2-((S)-4-(4-chlorophenyl)-2,3,9-trimethyl-6H-thieno[3,2-f][1,2,4]triazolo[4,3-a][1,4]diazepin-6-yl)acetamido)cyclobutyl)-5,5-dimethyl-4-oxohex-2-enamide]
–	–	10 to 100	10 to 100	Cc1sc2c(c1C)C(c1ccc(Cl)cc1)=N[C@@H](CC(=O)N[C@H]1C[C@H](NC(=O)/C=C/C(=O)C(C)(C)C)C1)c1nnc(C)n1-2 [Compound 278, (E)-N-((1S,3r)-3-(2-((S)-4-(4-chlorophenyl)-2,3,9-trimethyl-6H-thieno[3,2-f][1,2,4]triazolo[4,3-a][1,4]diazepin-6-yl)acetamido)cyclobutyl)-5,5-dimethyl-4-oxohex-2-enamide]
–	–	> 5000	> 5000	COc1ccc(/C=C/S(=O)(=O)N2CCN(C(=O)C[C@@H]3N=C(c4ccc(Cl)cc4)c4c(sc(C)c4C)-n4c(C)nnc43)CC2)cc1 [Compound 279, (S,E)-2-(4-(4-chlorophenyl)-2,3,9-trimethyl-6H-thieno[3,2-f][1,2,4]triazolo[4,3-a][1,4]diazepin-6-yl)-1-(4-((4-methoxystyryl)sulfonyl)piperazin-1-yl)ethan-1-one]
100 to 1000	100 to 1000	–	–	Cc1sc2c(c1C)C(c1ccc(Cl)cc1)=N[C@@H](CC(=O)N[C@H]1C[C@H](NC(=O)/C=C/C(=O)c3ccc(Cl)cc3Cl)C1)c1nnc(C)n1-2 [Compound 281, (E)-N-((1S,3r)-3-(2-((S)-4-(4-chlorophenyl)-2,3,9-trimethyl-6H-thieno[3,2-f][1,2,4]triazolo[4,3-a][1,4]diazepin-6-yl)acetamido)cyclobutyl)-4-(2,4-dichlorophenyl)-4-oxobut-2-enamide]

From US20260200939A1, “MOLECULAR GLUE DEGRADER COMPOUNDS AND USES THEREOF” (Novartis AG, priority 2022, published 2026)
